Assay results taken from patent US8288429B2, “2-aza-bicyclo[3.3.0]octane derivatives” (Actelion Pharmaceuticals Ltd., priority 2007, dated 2012).
Where two headings read alike, the source gives them in different places.

Assays:
human orexin-1 receptor = target: T1, human orexin-1 receptor (Homo sapiens, UniProt O43613); experiment: Intracellular calcium measurement (FLIPR), orexin-A induced response in CHO cells expressing the human orexin-1 receptor; format: cell-based; conditions: 3 nM orexin-A as agonist
T1 construct: expressed in transfected cells; host or cells: CHO cells (selected with G418)
T1 sequence (O43613 1-425): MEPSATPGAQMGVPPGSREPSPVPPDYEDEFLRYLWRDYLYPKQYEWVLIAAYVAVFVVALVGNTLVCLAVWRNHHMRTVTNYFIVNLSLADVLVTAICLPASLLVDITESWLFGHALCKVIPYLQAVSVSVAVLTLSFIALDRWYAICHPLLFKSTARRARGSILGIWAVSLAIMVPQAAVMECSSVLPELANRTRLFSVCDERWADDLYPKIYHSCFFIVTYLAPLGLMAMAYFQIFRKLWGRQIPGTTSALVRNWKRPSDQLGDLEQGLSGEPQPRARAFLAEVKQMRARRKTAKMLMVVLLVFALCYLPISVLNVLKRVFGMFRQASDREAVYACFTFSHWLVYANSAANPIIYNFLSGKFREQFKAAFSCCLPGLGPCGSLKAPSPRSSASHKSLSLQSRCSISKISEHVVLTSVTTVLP
Procedure: (§1) The orexin receptor antagonistic activity of the compounds of formula (I) is determined in accordance with the following experimental method.
(§2) Intracellular Calcium Measurements:
(§3) Chinese hamster ovary (CHO) cells expressing the human orexin-1 receptor and the human orexin-2 receptor, respectively, are grown in culture medium (Ham F-12 with L-Glutamine) containing 300 μg/ml G418, 100 U/ml penicillin, 100 μg/ml streptomycin and 10% heat inactivated fetal calf serum (FCS). The cells are seeded at 20,000 cells/well into 384-well black clear bottom sterile plates (Greiner). The seeded plates are incubated overnight at 37° C. in 5% CO2.
(§4) Human orexin-A as an agonist is prepared as 1 mM stock solution in MeOH: water (1:1), diluted in HBSS containing 0.1% bovine serum albumin (BSA), NaHCO3: 0.375 g/l and 20 mM HEPES for use in the assay at a final concentration of 3 nM.
(§5) Antagonists are prepared as 10 mM stock solution in DMSO, then diluted in 384-well plates using DMSO followed by a transfer of the dilutions into in HBSS containing 0.1% bovine serum albumin (BSA), NaHCO3: 0.375 g/l and 20 mM HEPES. On the day of the assay, 50 μl of staining buffer (HBSS containing 1% FCS, 20 mM HEPES, NaHCO3: 0.375 g/l, 5 mM probenecid (Sigma) and 3 μM of the fluorescent calcium indicator fluo-4 AM (1 mM stock solution in DMSO, containing 10% pluronic) is added to each well. The 384-well cell-plates are incubated for 50 min at 37° C. in 5% CO2 followed by equilibration at rt for 30-120 min before measurement.
(§6) Within the Fluorescent Imaging Plate Reader (FLIPR2 or FLIPR Tetra, Molecular Devices), antagonists are added to the plate in a volume of 10 μl/well, incubated for 10 min and finally 10 μl/well of agonist is added. Fluorescence is measured for each well at 1 second intervals, and the height of each fluorescence peak is compared to the height of the fluorescence peak induced by 3 nM orexin-A with vehicle in place of antagonist. For each antagonist, the IC50 value (the concentration of compound needed to inhibit 50% of the agonistic response) is determined. The calculated IC50 values of the compounds may fluctuate depending on the daily cellular assay performance. Fluctuations of this kind are known to those skilled in the art.

human orexin-2 receptor = target: T2, human orexin-2 receptor (Homo sapiens, UniProt O43614); experiment: Intracellular calcium measurement (FLIPR), orexin-A induced response in CHO cells expressing the human orexin-2 receptor; format: cell-based; conditions: 3 nM orexin-A as agonist
T2 construct: expressed in transfected cells; host or cells: CHO cells (selected with G418)
T2 sequence (O43614 1-444): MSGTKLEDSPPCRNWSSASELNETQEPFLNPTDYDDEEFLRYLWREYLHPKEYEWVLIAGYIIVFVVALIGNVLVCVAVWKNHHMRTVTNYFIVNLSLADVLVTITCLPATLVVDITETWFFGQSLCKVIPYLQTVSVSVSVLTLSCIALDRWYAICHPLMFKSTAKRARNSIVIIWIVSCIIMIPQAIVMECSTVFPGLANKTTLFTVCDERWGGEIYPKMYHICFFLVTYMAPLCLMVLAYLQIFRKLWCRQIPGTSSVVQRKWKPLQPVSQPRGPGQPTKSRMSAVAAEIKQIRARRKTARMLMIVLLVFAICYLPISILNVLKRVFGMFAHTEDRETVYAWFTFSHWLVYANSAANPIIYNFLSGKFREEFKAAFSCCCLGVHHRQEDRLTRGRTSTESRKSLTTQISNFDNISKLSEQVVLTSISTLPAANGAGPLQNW
Procedure: as §1, §2, §3, §4, §5, §6

[1] = measured using FLIPR2, read-out: OX1 IC50
[2] = measured using FLIPR2, read-out: OX2 IC50
[3] = measured using FLIPR Tetra (footnote 1), read-out: OX1 IC50
[4] = measured using FLIPR Tetra (footnote 1), read-out: OX2 IC50

| IC50 (human orexin-1 receptor; [1]) | IC50 (human orexin-2 receptor; [2]) | IC50 (human orexin-1 receptor; [3]) | IC50 (human orexin-2 receptor; [4]) | Compound |
| --- | --- | --- | --- | --- |
| 17 nM | 40 nM |  |  | Cc1ccc(-c2sc(C)nc2C(=O)N2[C@H](CNC(=O)c3c(C)nc4sccn34)C[C@@H]3CCC[C@@H]32)cc1 [Example 1, 6-Methyl-imidazo[2,1-b]thiazole-5-carboxylic acid [(1S,3S,5S)-2-(2-methyl-5-p-tolyl-thiazole-4-carbonyl)-2-azabicyclo[3.3.0]octane-3-ylmethyl]-amide] |
| 18 nM | 95 nM |  |  | Cc1nc2sccn2c1C(=O)NC[C@@H]1C[C@@H]2CCC[C@@H]2N1C(=O)c1nc(C2CC2)sc1-c1cccc(C(F)(F)F)c1 [Example 7, 6-Methyl-imidazo[2,1-b]thiazole-5-carboxylic acid {(1S,3S,5S)-2-[2-cyclopropyl-5-(3-trifluoromethyl-phenyl)-thiazole-4-carbonyl]-2-azabicyclo[3.3.0]octane-3-ylmethyl}-amide] |
| 275 nM | 283 nM |  |  | Cc1nc(C(=O)N2[C@H](CNC(=O)c3noc4ccccc34)C[C@@H]3CCC[C@@H]32)c(-c2cccc(Cl)c2)s1 [Example 9, Benzo[d]isoxazole-3-carboxylic acid {(1S,3S,5S)-2-[5-(3-chloro-phenyl)-2-methyl-thiazole-4-carbonyl]-2-azabicyclo[3.3.0]octane-3-ylmethyl}-amide] |
|  |  | 11 nM | 12 nM | Cc1nc(C(=O)N2[C@H](CNC(=O)c3cccc4c3CCO4)C[C@@H]3CCC[C@@H]32)c(-c2cccc(C(F)(F)F)c2)s1 [Example 16, 2,3-Dihydro-benzofuran-4-carboxylic acid {(1S,3S,5S)-2-[2-methyl-5-(3-trifluoromethyl-phenyl)-thiazole-4-carbonyl]-2-azabicyclo[3.3.0]octane-3-ylmethyl}-amide] |
|  |  | 37 nM | 32 nM | Cc1nc(C(=O)N2[C@H](CNC(=O)c3cccc4c3CCO4)C[C@@H]3CCC[C@@H]32)c(-c2ccc(F)c(Br)c2)s1 [Example 19, 2,3-Dihydro-benzofuran-4-carboxylic acid {(1S,3S,5S)-2-[5-(3-bromo-4-fluoro-phenyl)-2-methyl-thiazole-4-carbonyl]-2-azabicyclo[3.3.0]octane-3-ylmethyl}-amide] |
|  |  | 48 nM | 41 nM | O=C(NC[C@@H]1C[C@@H]2CCC[C@@H]2N1C(=O)c1nc(C2CC2)sc1-c1ccccc1)c1cccc2c1CCO2 [Example 26, 2,3-Dihydro-benzofuran-4-carboxylic acid [(1S,3S,5S)-2-(2-cyclopropyl-5-phenyl-thiazole-4-carbonyl)-2-azabicyclo[3.3.0]octane-3-ylmethyl]-amide] |
